The target in one series is T1, VCB protein (Homo sapiens, UniProt P40337).
T1 construct: A plasmid containing pVHL54–213 with an N-terminal His6 tag; His6 (N, cleaved yes); made in house; host or cells: Escherichia coli BL21 (DE3)
Kind of series: Competitive fluorescence polarization (FP) binding assay, displacement of FAM-labeled HIF-1α peptide. The conditions noted are these: for Kd: dissociation constant, determined by FP, mean ± S.E.M., back-calculated from IC50; for IC50: mean IC50 values obtained from the FP assay, read-out: IC50 ± S.E.M, FP assay. The protocol:
Binding of a ligand to the HIF binding site of VHL displaces a fluorescein-labeled, 19-mer HIF-1α oligopeptide, leading to a change in polarization of emitted light upon excitation of the competing fluorescent probe.
All components were dissolved from stock solutions using 100 mM Bis–Tris, 100 mM NaCl, 1 mM DTT, pH 7.0, to yield a final assay volume of 15 μL. DMSO was added as appropriate to ensure a final concentration of 2% (v/v). Control wells containing VCB and JC9 with no compound (zero displacement), or JC9, in the absence of protein (maximum displacement) were also included to allow for normalization. Percentage displacement values were obtained by normalization of controls and were plotted against log[compound]. The IC50 values were determined for each titration using non-linear regression analysis with Prism GraphPad (Table S1). Dissociation constants Kd for the compound–VCB interaction were back-calculated from the measured IC50 values by using a displacement binding model as described.[16],[64]

A short description of series [1]: Log D7.4 measurement by chromatographic method. Type of series: physicochemical. The settings on record: experimental distribution coefficient at pH 7.4; read-out: e log D7.4. The protocol:
(§1) Both were experimentally obtained employing HPLC-based protocols.[39],[40] […] PPB values were determined in view of how they could impact future pharmacokinetic studies of compounds as VHL inhibitors, or once conjugated into bifunctional PROTACs, for which PPB can be a limiting factor.
The determination of the log D7.4 values was performed by a chromatographic method as described previously.[41],[62] […] Subsequently, the mean retention times (n = 2) of the analytes were taken to calculate their log D7.4 values.

For another series, the target named is human serum albumin (Homo sapiens, UniProt P02768). The experiment in a line: PPB studies on HSA HPLC column. Type of series: in vitro ADME. The settings on record: CHIRALPAK HSA HPLC column (human serum albumin); experimentally determined percentage of the compound bound to human serum albumin. The protocol:
as §1
PPB was estimated by correlating the logarithmic retention times of the analytes on a […] HSA 50 × 3 mm, 5 μm column with the literature-known % PPB values (converted into log K values) of the following drugs: warfarin, ketoprofen, budesonide, nizatidine, indomethacin, acetylsalicylic acid, carbamazepine, piroxicam, nicardipine, and cimetidine.[63] Samples were dissolved in MeCN/DMSO 9:1 to achieve a final concentration of 0.5 mg/mL. The mobile phase A was 50 mM ammonium acetate adjusted to pH 7.4 with 10% NaOH, while mobile phase B was iPrOH. […] After injecting 3 μL of the sample, a linear gradient from 100% A to 30% iPrOH in 5.4 min was applied. From 5.4 to 18 min, 30% iPrOH was kept, followed by switching back to 100% A in 1.0 min and a re-equilibration time of 6 min.

As usually defined, the Kd is the constant that tells how readily two partners part at equilibrium. Usually IC50 stands for the concentration at which inhibition is half-maximal. Broadly, the fraction unbound is the share of the substance not bound to proteins or other matrix.

For `Cc1ncsc1-c1ccc(CNC(=O)[C@@H]2C[C@@H](O)CN2C(=O)[C@@H](NC(=O)C2(C#N)CC2)C(C)(C)C)cc1F` [Compound 8, (2S,4R)-1-((S)-2-(1-Cyanocyclopropane-1-carboxamido)-3,3-dimethylbutanoyl)-N-(3-fluoro-4-(4-methylthiazol-5-yl)benzyl)-4-hydroxypyrrolidine-2-carboxamide], at VCB protein, the Kd is 0.097 ± 0.011 µM and the IC50 amounted to 0.444 ± 0.018 µM. Also, the chromatographic logD in series [1] was 1.9. Moreover, at human serum albumin, the fraction unbound at 0.5 mg/mL was 0.12.

Consider `Cc1cc(-c2scnc2C)c(F)cc1CNC(=O)[C@@H]1C[C@@H](O)CN1C(=O)[C@@H](NC(=O)C1(F)CC1)C(C)(C)C` [Compound 28, (2S,4R)-N-(5-Fluoro-2-methyl-4-(4-methylthiazol-5-yl)benzyl)-1-((S)-2-(1-fluorocyclopropane-1-carboxamido)-3,3-dimethylbutanoyl)-4-hydroxypyrrolidine-2-carboxamide], for which, on VCB protein, the equilibrium dissociation constant (Kd) was 0.08 ± 0.023 µM and the IC50 worked out at 0.31 ± 0.065 µM. Also, the chromatographic logD in series [1] turned out to be 2.3. The same molecule gave a free fraction (fraction unbound) at 0.5 mg/mL on human serum albumin of 0.1.

As to `Cc1ncsc1-c1ccc(CNC(=O)[C@@H]2C[C@@H](O)CN2C(=O)[C@@H](NC(=O)C2(C#N)CC2)C(C)(C)C)c(Cl)c1` [Compound 5, (2S,4R)-N-(2-Chloro-4-(4-methylthiazol-5-yl)benzyl)-1-((S)-2-(1-cyanocyclopropane-1-carboxamido)-3,3-dimethylbutanoyl)-4-hydroxypyrrolidine-2-carboxamide], at VCB protein, the Kd is 0.245 ± 0.02 µM and the IC50 is 1.14 ± 0.131 µM. Moreover, the chromatographic logD in series [1] is 2.2. The molecule also returned an unbound share (fraction unbound) at 0.5 mg/mL on human serum albumin of 0.09.

Take `Cc1cc(-c2scnc2C)cc(C)c1CNC(=O)[C@@H]1C[C@@H](O)CN1C(=O)[C@@H](NC(=O)C1(C#N)CC1)C(C)(C)C` [Compound 10, (2S,4R)-1-((S)-2-(1-Cyanocyclopropane-1-carboxamido)-3,3-dimethylbutanoyl)-N-(2,6-dimethyl-4-(4-methylthiazol-5-yl)benzyl)-4-hydroxypyrrolidine-2-carboxamide]: on VCB protein, the dissociation constant (Kd) was 4.11 ± 0.56 µM and the IC50 was found to be 21.1 ± 2.18 µM. Further, the chromatographic logD in series [1] was found to be 2.2. The same molecule had a free fraction (fraction unbound) at 0.5 mg/mL at human serum albumin of 0.1.

Take `Cc1ncsc1-c1cc2c(cc1F)[C@@H](NC(=O)[C@@H]1C[C@@H](O)CN1C(=O)[C@@H](NC(=O)C1(F)CC1)C(C)(C)C)CC2` [Compound 36, (2S,4R)-N-((S)-6-Fluoro-5-(4-methylthiazol-5-yl)-2,3-dihydro-1H-inden-1-yl)-1-((S)-2-(1-fluorocyclopropane-1-carboxamido)-3,3-dimethylbutanoyl)-4-hydroxypyrrolidine-2-carboxamide]: at VCB protein, the dissociation constant Kd was 2.55 ± 0.51 µM and the IC50 is 10.6 ± 2.03 µM. The chromatographic logD in series [1] is 2.3.

Consider `Cc1ncsc1-c1cc(Cl)c(CNC(=O)[C@@H]2C[C@@H](O)CN2C(=O)[C@@H](NC(=O)C2(C#N)CC2)C(C)(C)C)cc1Cl` [Compound 17, (2S,4R)-1-((S)-2-(1-Cyanocyclopropane-1-carboxamido)-3,3-dimethylbutanoyl)-N-(2,5-dichloro-4-(4-methylthiazol-5-yl)benzyl)-4-hydroxypyrrolidine-2-carboxamide], for which, at VCB protein, the dissociation constant (Kd) is 0.883 ± 0.068 µM and the IC50 amounted to 4.56 ± 0.208 µM. In series [1], the chromatographic logD is 2.5. Besides, the free fraction (fraction unbound) at 0.5 mg/mL on human serum albumin is 0.07.

In the case of `COc1cc(-c2scnc2C)c(OC)cc1CNC(=O)[C@@H]1C[C@@H](O)CN1C(=O)[C@@H](NC(=O)C1(C#N)CC1)C(C)(C)C` [Compound 15, (2S,4R)-1-((S)-2-(1-Cyanocyclopropane-1-carboxamido)-3,3-dimethylbutanoyl)-N-(2,5-dimethoxy-4-(4-methylthiazol-5-yl)benzyl)-4-hydroxypyrrolidine-2-carboxamide], at VCB protein, the dissociation constant (Kd) was 1.27 ± 0.15 µM and the IC50 is 6.53 ± 0.428 µM. Also, the chromatographic logD in series [1] was 1.9. Besides, at human serum albumin, the fraction unbound at 0.5 mg/mL is 0.14.

For `Cc1cc(-c2scnc2C)ccc1[C@H](C)NC(=O)[C@@H]1C[C@@H](O)CN1C(=O)[C@@H](NC(=O)C1(C#N)CC1)C(C)(C)C` [Compound 24, (2S,4R)-1-((S)-2-(1-Cyanocyclopropane-1-carboxamido)-3,3-dimethylbutanoyl)-4-hydroxy-N-((S)-1-(2-methyl-4-(4-methylthiazol-5-yl)phenyl)ethyl)pyrrolidine-2-carboxamide], at VCB protein, the dissociation constant (Kd) was 0.086 ± 0.02 µM and the half-maximal inhibitory concentration (IC50) turned out to be 0.329 ± 0.051 µM. Further, the chromatographic logD in series [1] stood at 2.3. Moreover, the fraction unbound at 0.5 mg/mL on human serum albumin is 0.12.

For the molecule `Cc1ncsc1-c1ccc(CNC(=O)[C@@H]2C[C@@H](O)CN2C(=O)[C@@H](NC(=O)C2(C#N)CC2)C(C)(C)C)c2ncccc12` [Compound 23, (2S,4R)-1-((S)-2-(1-Cyanocyclopropane-1-carboxamido)-3,3-dimethylbutanoyl)-4-hydroxy-N-((5-(4-methylthiazol-5-yl)quinolin-8-yl)methyl)pyrrolidine-2-carboxamide], at VCB protein, the Kd was 0.33 ± 0.093 µM and the IC50 is 1.67 ± 0.375 µM. Moreover, the chromatographic logD in series [1] was 1.7. On human serum albumin, this molecule gave an unbound share (fraction unbound) at 0.5 mg/mL of 0.12.

As to `COc1cc(CNC(=O)[C@@H]2C[C@@H](O)CN2C(=O)[C@@H](NC(=O)C2(C#N)CC2)C(C)(C)C)ccc1-c1scnc1C` [Compound 7, (2S,4R)-1-((S)-2-(1-Cyanocyclopropane-1-carboxamido)-3,3-dimethylbutanoyl)-4-hydroxy-N-(3-methoxy-4-(4-methylthiazol-5-yl)benzyl)pyrrolidine-2-carboxamide], at VCB protein, the Kd was 0.163 ± 0.022 µM and the IC50 stood at 0.742 ± 0.014 µM. In addition, in series [1], the chromatographic logD is 1.9. This molecule also had a fraction unbound at 0.5 mg/mL at human serum albumin of 0.13.

On to `Cc1ncsc1-c1ccc(CNC(=O)[C@@H]2C[C@@H](O)CN2C(=O)[C@@H](NC(=O)C2(F)CC2)C(C)(C)C)cc1` [Compound 38, (2S,4R)-1-((S)-2-(1-Fluorocyclopropane-1-carboxamido)-3,3-dimethylbutanoyl)-4-hydroxy-N-(4-(4-methylthiazol-5-yl)benzyl)pyrrolidine-2-carboxamide, reference compound], for which, in series [1], the chromatographic logD worked out at 1.8. This molecule also showed an unbound share (fraction unbound) at 0.5 mg/mL at human serum albumin of 0.14.

As for `Cc1ncsc1-c1cc(Cl)c(CNC(=O)[C@@H]2C[C@@H](O)CN2C(=O)[C@@H](NC(=O)C2(C#N)CC2)C(C)(C)C)c(Cl)c1` [Compound 13, (2S,4R)-1-((S)-2-(1-Cyanocyclopropane-1-carboxamido)-3,3-dimethylbutanoyl)-N-(2,6-dichloro-4-(4-methylthiazol-5-yl)benzyl)-4-hydroxypyrrolidine-2-carboxamide], on VCB protein, the Kd is 8.15 ± 0.68 µM and the half-inhibitory concentration (IC50) was determined as 42 ± 1.92 µM. Further, the chromatographic logD in series [1] was found to be 2.4. This molecule gave a fraction unbound at 0.5 mg/mL on human serum albumin of 0.09.

Regarding `Cc1ncsc1-c1cc2c(cc1F)[C@@H](NC(=O)[C@@H]1C[C@@H](O)CN1C(=O)[C@@H](NC(=O)C1(C#N)CC1)C(C)(C)C)CC2` [Compound 35, (2S,4R)-1-((S)-2-(1-Cyanocyclopropane-1-carboxamido)-3,3-dimethylbutanoyl)-N-((S)-6-fluoro-5-(4-methylthiazol-5-yl)-2,3-dihydro-1H-inden-1-yl)-4-hydroxypyrrolidine-2-carboxamide], on VCB protein, the dissociation constant (Kd) is 4.04 ± 0.53 µM and the IC50 is 16.6 ± 2.13 µM. Besides, in series [1], the chromatographic logD was 2.3. On human serum albumin, this molecule gave a fraction unbound at 0.5 mg/mL of 0.1.

For `COc1c(CNC(=O)[C@@H]2C[C@@H](O)CN2C(=O)[C@@H](NC(=O)C2(C#N)CC2)C(C)(C)C)ccc(-c2scnc2C)c1F` [Compound 21, (2S,4R)-1-((S)-2-(1-Cyanocyclopropane-1-carboxamido)-3,3-dimethylbutanoyl)-N-(3-fluoro-2-methoxy-4-(4-methylthiazol-5-yl)benzyl)-4-hydroxypyrrolidine-2-carboxamide], the chromatographic logD in series [1] amounted to 2.1. At human serum albumin, this molecule had a fraction unbound at 0.5 mg/mL of 0.11.

(Values after paper PMC10544018 (Journal of Medicinal Chemistry, 2023).)
